What all share (assay type): binding
Experiment [1] addresses kinases (KINOMEscan panel) (Homo sapiens, UniProt P07949, V804M). The following applies: kinase RET(V804M); NEW KINOMEscan.
The target of experiment [2] is kinases (KINOMEscan panel) (Homo sapiens, UniProt Q15303). Conditions: kinase ERBB4; NEW KINOMEscan.
Experiment [3] has as its target T1, kinases (KINOMEscan panel) (Homo sapiens, UniProt P42681).
T1 sequence (P42681 1-527): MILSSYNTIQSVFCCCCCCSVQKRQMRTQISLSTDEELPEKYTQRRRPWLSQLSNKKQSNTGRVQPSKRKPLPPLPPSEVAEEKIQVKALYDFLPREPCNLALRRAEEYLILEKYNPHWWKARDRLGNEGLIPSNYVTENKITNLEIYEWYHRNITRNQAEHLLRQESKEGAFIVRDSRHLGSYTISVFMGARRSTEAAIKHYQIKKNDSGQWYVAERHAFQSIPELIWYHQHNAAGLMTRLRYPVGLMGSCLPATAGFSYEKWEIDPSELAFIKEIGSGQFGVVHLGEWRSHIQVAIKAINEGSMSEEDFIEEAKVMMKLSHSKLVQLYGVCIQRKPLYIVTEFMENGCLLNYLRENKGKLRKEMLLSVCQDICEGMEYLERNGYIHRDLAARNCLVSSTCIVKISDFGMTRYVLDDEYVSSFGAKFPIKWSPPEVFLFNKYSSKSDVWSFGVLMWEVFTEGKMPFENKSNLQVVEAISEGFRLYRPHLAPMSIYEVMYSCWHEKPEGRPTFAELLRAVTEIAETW
The following applies: kinase TXK; NEW KINOMEscan.

The target of experiment [4] is kinases (KINOMEscan panel) (Homo sapiens, UniProt Q96NX5). Conditions: CAMK1G; NEW KINOMEscan.
Experiment [5] addresses T2, kinases (KINOMEscan panel) (Homo sapiens, UniProt Q8IWQ3).
T2 sequence (Q8IWQ3 1-736): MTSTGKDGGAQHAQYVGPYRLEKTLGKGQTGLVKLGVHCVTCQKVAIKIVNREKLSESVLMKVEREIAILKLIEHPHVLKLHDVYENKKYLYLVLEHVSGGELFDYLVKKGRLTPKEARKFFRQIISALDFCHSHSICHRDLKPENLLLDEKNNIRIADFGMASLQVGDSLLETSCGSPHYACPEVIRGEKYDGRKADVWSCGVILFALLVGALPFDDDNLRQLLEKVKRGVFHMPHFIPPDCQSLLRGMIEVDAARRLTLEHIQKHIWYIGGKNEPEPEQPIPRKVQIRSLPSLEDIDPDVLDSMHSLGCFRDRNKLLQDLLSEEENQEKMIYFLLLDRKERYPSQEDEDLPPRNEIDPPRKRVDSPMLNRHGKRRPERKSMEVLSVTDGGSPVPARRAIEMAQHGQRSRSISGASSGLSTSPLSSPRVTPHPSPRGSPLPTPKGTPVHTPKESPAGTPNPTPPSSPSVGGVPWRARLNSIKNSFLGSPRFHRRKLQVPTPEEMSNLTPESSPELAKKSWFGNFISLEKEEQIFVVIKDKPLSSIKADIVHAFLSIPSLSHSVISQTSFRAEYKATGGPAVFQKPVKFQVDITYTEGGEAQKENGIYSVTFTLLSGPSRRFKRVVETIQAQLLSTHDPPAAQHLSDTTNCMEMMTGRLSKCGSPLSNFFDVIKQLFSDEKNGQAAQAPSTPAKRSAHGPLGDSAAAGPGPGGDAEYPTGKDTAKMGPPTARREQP
Conditions: kinase BRSK2; NEW KINOMEscan.

Experiment [6] deals with kinases (KINOMEscan panel) (Homo sapiens, UniProt Q15759).
Experiment [7] deals with T3, kinases (KINOMEscan panel) (Homo sapiens, UniProt Q96BR1).
T3 sequence (Q96BR1 1-496): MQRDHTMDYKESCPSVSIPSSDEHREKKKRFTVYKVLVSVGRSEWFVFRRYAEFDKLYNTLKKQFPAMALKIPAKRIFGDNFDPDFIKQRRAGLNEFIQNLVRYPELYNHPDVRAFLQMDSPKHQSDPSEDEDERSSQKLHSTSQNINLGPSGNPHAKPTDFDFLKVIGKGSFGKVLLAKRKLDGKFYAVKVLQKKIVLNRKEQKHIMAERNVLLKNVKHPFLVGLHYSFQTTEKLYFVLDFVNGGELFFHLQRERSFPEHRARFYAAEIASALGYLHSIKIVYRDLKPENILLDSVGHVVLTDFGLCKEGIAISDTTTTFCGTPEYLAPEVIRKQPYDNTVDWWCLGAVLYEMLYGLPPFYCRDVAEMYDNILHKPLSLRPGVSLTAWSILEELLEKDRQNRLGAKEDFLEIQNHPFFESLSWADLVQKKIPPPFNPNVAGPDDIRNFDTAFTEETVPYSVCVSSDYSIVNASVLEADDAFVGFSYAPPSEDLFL
Conditions: kinase SGK3; NEW KINOMEscan.

Experiment [8] concerns the target T4, kinases (KINOMEscan panel) (Homo sapiens, UniProt Q8NFD2).
T4 sequence (Q8NFD2 1-765): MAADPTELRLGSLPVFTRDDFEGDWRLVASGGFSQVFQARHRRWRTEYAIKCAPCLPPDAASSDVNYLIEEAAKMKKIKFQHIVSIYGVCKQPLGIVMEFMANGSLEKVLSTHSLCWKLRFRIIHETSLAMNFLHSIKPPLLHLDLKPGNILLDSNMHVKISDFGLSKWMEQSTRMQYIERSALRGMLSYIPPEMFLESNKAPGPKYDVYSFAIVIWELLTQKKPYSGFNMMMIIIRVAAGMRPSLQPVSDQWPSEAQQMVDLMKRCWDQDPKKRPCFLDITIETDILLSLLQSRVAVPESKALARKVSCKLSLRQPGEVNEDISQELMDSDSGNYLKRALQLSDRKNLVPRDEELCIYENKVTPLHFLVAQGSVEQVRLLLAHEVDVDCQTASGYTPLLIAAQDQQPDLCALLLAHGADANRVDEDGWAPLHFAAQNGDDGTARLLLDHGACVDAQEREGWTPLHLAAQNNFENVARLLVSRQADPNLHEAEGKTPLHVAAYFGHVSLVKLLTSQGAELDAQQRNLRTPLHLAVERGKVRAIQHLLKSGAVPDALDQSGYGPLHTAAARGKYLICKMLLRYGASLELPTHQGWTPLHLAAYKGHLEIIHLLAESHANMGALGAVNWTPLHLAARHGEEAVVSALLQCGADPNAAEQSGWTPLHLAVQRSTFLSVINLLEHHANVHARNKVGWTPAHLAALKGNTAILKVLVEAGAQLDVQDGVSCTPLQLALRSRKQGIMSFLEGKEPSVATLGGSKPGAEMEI
Conditions: ANKK1; NEW KINOMEscan.

kinases (KINOMEscan panel) (Homo sapiens, UniProt Q96NX5), sequence (Q96NX5 whole entry): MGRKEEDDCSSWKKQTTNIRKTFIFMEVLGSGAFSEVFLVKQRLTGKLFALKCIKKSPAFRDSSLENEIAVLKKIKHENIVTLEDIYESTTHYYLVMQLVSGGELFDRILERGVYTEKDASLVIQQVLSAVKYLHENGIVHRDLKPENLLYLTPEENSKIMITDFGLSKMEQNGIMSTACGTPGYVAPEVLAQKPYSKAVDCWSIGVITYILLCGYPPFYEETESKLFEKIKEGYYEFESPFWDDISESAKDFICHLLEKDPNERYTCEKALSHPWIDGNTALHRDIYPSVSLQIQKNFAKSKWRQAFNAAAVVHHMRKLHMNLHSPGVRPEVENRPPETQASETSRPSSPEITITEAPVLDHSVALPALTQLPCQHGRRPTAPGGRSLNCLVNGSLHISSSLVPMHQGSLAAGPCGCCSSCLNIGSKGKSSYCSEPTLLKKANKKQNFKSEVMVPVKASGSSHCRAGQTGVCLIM
kinases (KINOMEscan panel) (Homo sapiens, UniProt Q15303), sequence (Q15303 26-1308): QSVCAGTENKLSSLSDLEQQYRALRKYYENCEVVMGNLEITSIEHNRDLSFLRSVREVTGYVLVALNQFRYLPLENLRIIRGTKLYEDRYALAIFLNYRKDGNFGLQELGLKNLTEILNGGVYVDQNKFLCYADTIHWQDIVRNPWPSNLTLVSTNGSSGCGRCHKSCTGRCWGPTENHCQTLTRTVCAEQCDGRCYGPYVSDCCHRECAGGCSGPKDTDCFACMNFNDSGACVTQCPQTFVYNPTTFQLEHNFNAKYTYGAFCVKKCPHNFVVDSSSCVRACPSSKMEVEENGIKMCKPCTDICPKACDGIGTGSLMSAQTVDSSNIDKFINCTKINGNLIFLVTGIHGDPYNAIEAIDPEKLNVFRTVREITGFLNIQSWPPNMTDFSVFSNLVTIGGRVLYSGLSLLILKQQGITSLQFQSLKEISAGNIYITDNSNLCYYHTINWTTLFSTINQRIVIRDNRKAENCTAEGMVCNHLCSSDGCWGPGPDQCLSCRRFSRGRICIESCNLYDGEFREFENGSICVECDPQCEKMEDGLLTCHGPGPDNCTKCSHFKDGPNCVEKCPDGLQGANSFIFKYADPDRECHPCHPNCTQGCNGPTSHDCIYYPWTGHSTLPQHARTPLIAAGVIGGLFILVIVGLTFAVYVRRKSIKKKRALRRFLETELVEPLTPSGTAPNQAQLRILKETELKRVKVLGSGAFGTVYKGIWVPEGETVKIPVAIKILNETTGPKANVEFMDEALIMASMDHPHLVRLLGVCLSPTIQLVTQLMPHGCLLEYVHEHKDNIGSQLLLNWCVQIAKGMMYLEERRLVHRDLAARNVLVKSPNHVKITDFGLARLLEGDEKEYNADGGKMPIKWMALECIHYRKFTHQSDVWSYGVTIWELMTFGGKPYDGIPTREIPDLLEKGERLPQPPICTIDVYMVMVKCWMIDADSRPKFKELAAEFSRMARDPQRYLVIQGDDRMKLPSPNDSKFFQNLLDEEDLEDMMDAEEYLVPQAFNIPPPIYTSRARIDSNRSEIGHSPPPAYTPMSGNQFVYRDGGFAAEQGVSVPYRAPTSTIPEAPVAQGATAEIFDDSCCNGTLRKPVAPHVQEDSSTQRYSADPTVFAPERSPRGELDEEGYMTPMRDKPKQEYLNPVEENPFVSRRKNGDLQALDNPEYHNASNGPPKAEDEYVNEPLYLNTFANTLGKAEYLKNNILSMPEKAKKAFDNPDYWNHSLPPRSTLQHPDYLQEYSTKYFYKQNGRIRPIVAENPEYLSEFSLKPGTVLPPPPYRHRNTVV
kinases (KINOMEscan panel) (Homo sapiens, UniProt Q15759), sequence (Q15759 whole entry): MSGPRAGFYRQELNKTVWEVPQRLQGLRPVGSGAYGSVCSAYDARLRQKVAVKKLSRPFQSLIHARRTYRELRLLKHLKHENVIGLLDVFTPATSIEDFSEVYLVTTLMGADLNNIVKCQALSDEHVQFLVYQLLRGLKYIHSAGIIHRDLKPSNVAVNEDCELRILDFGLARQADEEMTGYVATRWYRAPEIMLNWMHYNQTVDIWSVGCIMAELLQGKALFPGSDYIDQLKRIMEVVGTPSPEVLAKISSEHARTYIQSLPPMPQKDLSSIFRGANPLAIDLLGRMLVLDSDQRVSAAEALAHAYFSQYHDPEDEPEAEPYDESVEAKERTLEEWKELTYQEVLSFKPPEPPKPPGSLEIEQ
kinases (KINOMEscan panel) (Homo sapiens, UniProt P07949, V804M), sequence (P07949 29-1114 V804M): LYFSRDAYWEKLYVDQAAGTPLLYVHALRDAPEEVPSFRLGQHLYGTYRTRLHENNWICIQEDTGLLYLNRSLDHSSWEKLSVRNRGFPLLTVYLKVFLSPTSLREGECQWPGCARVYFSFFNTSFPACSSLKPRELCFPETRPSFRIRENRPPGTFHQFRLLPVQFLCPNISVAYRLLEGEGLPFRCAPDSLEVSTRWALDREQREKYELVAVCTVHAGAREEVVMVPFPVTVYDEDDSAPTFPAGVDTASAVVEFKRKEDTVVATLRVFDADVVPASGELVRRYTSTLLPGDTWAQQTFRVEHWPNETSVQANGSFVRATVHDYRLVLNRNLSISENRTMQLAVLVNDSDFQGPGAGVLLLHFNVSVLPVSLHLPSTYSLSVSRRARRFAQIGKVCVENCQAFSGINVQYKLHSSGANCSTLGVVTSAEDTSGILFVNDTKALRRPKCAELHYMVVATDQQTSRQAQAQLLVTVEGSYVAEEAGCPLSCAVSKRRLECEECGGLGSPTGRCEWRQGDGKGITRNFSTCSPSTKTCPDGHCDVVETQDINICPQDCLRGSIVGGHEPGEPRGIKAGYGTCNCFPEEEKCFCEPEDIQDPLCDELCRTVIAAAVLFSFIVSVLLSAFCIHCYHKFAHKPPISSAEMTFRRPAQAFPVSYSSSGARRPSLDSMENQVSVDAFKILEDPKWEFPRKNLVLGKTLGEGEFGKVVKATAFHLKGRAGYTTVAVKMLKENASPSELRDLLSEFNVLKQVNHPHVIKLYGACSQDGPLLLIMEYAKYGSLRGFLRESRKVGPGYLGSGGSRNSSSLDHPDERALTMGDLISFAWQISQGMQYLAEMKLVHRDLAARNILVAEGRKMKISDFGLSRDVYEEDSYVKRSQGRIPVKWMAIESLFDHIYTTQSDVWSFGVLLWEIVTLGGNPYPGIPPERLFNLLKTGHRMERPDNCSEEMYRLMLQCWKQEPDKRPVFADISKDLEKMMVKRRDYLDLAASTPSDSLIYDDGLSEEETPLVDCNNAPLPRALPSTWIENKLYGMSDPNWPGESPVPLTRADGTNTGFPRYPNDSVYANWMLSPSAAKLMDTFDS

As to `Cc1cccc(-c2nc(Nc3ccc4nn(C)cc4c3)c3ccccc3n2)n1` [NK167], in experiment [1], the “KINOMEscan RET(V804M)” value was 0. Besides, in experiment [2], the “KINOMEscan ERBB4” value came out at 0. For the same compound, the “KINOMEscan TXK” value in experiment [3] was 3. In addition, the “KINOMEscan CAMK1G” value in experiment [4] is recorded as 0. For the same compound, the “KINOMEscan BRSK2” value in experiment [5] is given as 9. Moreover, the “KINOMEscan MAPK11/p38-beta” value in experiment [6] worked out at 12. In addition, the “KINOMEscan SGK3” value in experiment [7] is recorded as 0. Also, the “KINOMEscan ANKK1” value in experiment [8] turned out to be 0.

`Cc1cccc(-c2nc(N(C)c3ccc4ncsc4c3)c3ccccc3n2)n1` [NK-161]: the “KINOMEscan RET(V804M)” value in experiment [1] stood at 0. In addition, in experiment [2], the “KINOMEscan ERBB4” value is given as 0. Also, the “KINOMEscan TXK” value in experiment [3] stood at 0. In addition, the “KINOMEscan CAMK1G” value in experiment [4] amounted to 0. Besides, the “KINOMEscan BRSK2” value in experiment [5] is reported as 12. In experiment [6], the “KINOMEscan MAPK11/p38-beta” value amounted to 1. In experiment [7], the “KINOMEscan SGK3” value is on record as 13. The “KINOMEscan ANKK1” value in experiment [8] was determined as 0.
